Here are results for 6 compounds from US20240317683A1, “METHODS OF TREATING MOOD DISORDERS” (priority 2020, published 2024).

Structures are written as SMILES. Counter-ions that a name gives are not always drawn. Like-named read-outs stand apart in the source and are kept apart here.

A short description of data set [1]: Metabolic stability in mouse liver microsomes (MLM). The note with it: CD-1, mouse, pooled mouse liver microsomes, pH 7.4, NADPH. The data set is classed as in vitro ADME, CD-1 mice. How it is done: MLM Stability. Pooled MLM from CD-1 mice (BIOIVT M00501) were used. Microsomal incubations were carried out in multi-well plates. […] Control incubations were performed by replacing the NADPH-cofactor system with PBS. Test compounds (1 μM, final solvent concentration 1.0%) were incubated with microsomes at 37° C. with constant shaking. Six time points over 60 minutes were analyzed, with 60 μL aliquots of the reaction mixture being drawn at each time point.
(Microsomes from liver hold many membrane-bound enzymes, among them those of drug oxidation.)

A short description of data set [2]: Pharmacokinetics in mice, plasma. Format: in vivo, C57BL/6 mice. The conditions noted are these: for AUC(0-t) / clearance / half-life / Cmax / Tmax: male, C57BL/6, mouse plasma; for F: mouse, based on plasma AUC0-last. As for the experimental part: Animals. Male C57BL/6 mice, aged 8-12 weeks, were used in these studies. Four mice were housed in each cage. Temperature and humidity were maintained at 22±3° C. and 30-70%, respectively, and illumination was controlled to give a 12 h light and 12 h dark cycle. Temperature and humidity were recorded by an auto-controlled data logger system. All animals were provided laboratory rodent diet. Reverse osmosis water treated with ultraviolet light was provided ad libitum. Animals were randomly assigned to treatment groups.
Drugs. Compounds 4 and 5 were prepared as described above. All other compounds were commercially obtained. Test compounds were used as the hydrogen fumarate (1 and 2) or hydrochloride (3, 4, and 5) salts and were dissolved in a vehicle consisting of normal saline. They were then administered intravenously (IV) via the tail vein, subcutaneously (SC), or orally (PO) via gavage at a dose of 1 or 10 mg/kg (calculated based on the free base) and at a volume of 5 ml/kg body weight.
Sample Collection and Bioanalysis. Blood samples (approximately 60 μL) were collected under light isoflurane anesthesia (Surgivet®) from the retro orbital plexus at 0.08, 0.25, 0.5, 1, 2, 4, 8, and 24 h (4 animals per time point). Immediately after blood collection, plasma was harvested by centrifugation at 4,000 rpm for 10 min at 4° C. and samples were stored at −70±10° C. until bioanalysis. Following blood collection, animals were immediately sacrificed, the abdominal vena-cava was cut open, and the whole body was perfused from the heart using 10 mL of normal saline, and brain samples were collected from all animals. After isolation, brain samples were rinsed three times in ice-cold normal saline (for 5-10 seconds/rinse using ˜5-10 mL normal saline in disposable petri dish for each rinse) and dried on blotting paper. Brain samples were homogenized using ice-cold phosphate-buffered saline (pH 7.4). Total homogenate volume was three times the tissue weight. All homogenates were stored at −70±10° C. until bioanalysis. For bioanalysis, 25 μL aliquots of plasma/brain study samples or spiked plasma/brain calibration standards were added to individual pre-labeled micro-centrifuge tubes followed by 100 μL of an internal standard solution (glipizide, 500 ng/ml in acetonitrile) except for blanks, where 100 μL of acetonitrile was added. Samples were vortexed for 5 minutes and then centrifuged for 10 minutes at 4,000 rpm at 4° C. Following centrifugation, 100 μL of each clear supernatant was transferred to a 96 well plate and analyzed with a fit-for-purpose LC-MS/MS method, with authentic samples of each analyte used for calibration and identification.
Data Analysis. Pharmacokinetic parameters were estimated using the non-compartmental analysis tool of Phoenix® WinNonlin software (Ver 8.0).

In data set [3] the test system is monoamine oxidase A and B (MAO-A and MAO-B). As to the kind of experiment: Stability in the presence of monoamine oxidases (human liver mitochondria). The data set is classed as in vitro ADME. The conditions noted are these: for MAO stability (in words): human liver mitochondria preparation; for half-life at 1 μM / microsomal CLint at 1 μM: human liver mitochondria, pH 7.4; for half-life at 1 μM / microsomal CLint at 1 μM / Remaining (t = 60 min): human mitochondrial preparation, 1 μM. How it is done:
Liver Mitochondria Incubations. Human liver mitochondria (Xenotech H0610.M) were used. Mitochondrial incubations were carried out in multi-well plates. […] Six time points over 60 minutes were analyzed.

In data set [4] the target is 5-HT2A (Homo sapiens (Human), UniProt P28223). As to the kind of experiment: FLIPR Ca2+ flux agonist assay, 5-HT2A. The data set is classed as cell-based. The conditions noted are these: for EC50 / 5-HT2A % Act @ Max Dose: HEK293. How it is done:
A solution of 250 mM probenecid in 1 mL FLIPR assay buffer was prepared fresh. This was combined with a fluorescent dye (Fluo-4 Direct™) to make a final assay concentration of 2.5 mM. […] The fluorescent dye was then added to the assay plate along with assay buffer to a final volume of 40 μL. The cell plate was incubated for 50 min at 37° C. and 5% CO2 and placed into the FLIPR Tetra along with the compound plate. 10 μL of references and compounds were then transferred from the compound plate into the cell plate and the fluorescent signal was read.
For orientation: Calcium assays in cells follow changes in intracellular calcium, usually with a dye or a luminescent sensor.

Data set [5] concerns the target serotonin transporter (SERT) (Homo sapiens (Human), UniProt P31645). As to the kind of experiment: SERT fluorescent substrate uptake inhibition in transfected HEK293 cells. The data set is classed as cell-based. The conditions noted are these: HEK293 cells expressing SERT. How it is done:
SERT Uptake Inhibition. The ability of test compounds to block monoamine uptake by SERT was determined using the Neurotransmitter Transporter Uptake Assay Kit manufactured by Molecular Devices (Cat #R8173). Briefly, stably transfected HEK293 cells expressing SERT were grown and plated into 384-well plates at a concentration of 20,000 cells per well. Plates were then incubated for 16-20 h at 37° C. and 5% CO2. The medium was then aspirated and replaced with 25 μL of assay buffer (20 mM HEPES in HBSS, containing 0.1% BSA) containing the test compounds at the appropriate concentrations. Plates were then centrifuged at 300 rpm for 15 s and then incubated at 37° C. for 30 minutes. At this time, 25 μL of the proprietary fluorescent dye solution was added, the plates were incubated at 37°° C. for 60 minutes, and then fluorescence was quantified on a plate reader (excitation wavelength =440 nm, emission wavelength=520 nm). The proprietary dye solution contains a mixture of 1) a fluorescent dye (dye 1) that mimics the endogenous substrate of SERT and is thereby actively transported to the intracellular compartment in the absence of an inhibitor and 2) a masking dye that inhibits the fluorescence of dye 1 in the extracellular compartment. Therefore, the overall fluorescence of the system increases as the fluorescent dye is transported into the cells.

Setting [6] is: IV, 10 mg/kg, read-out: Cmax (C0 back-extrapolated to t = 0).

For `CCCN(CC)CCc1c[nH]c2ccccc12` [Compound 1, ethylpropyltryptamine], in data set [1], the half-life (as a rule, the time needed for the level to fall by half in the phase considered) at 1 μM was found to be 6 min and the microsomal CLint (as a rule, a measure of how fast metabolising enzymes remove a compound, apart from limits set by blood flow) at 1 μM turned out to be 231 µL/min/mg. Also, in data set [2] (IV, 10 mg/kg), the AUC(0-t) (usually exposure summed from dosing to a finite time, without extrapolation to infinity) was determined as 844 ng·h/mL; the clearance (in general, a measure of how efficiently the substance is removed, as volume per time) came to 197 mL/min/kg; the half-life is 114 min. The maximum concentration (Cmax) – broadly, the maximum level reached in the sampled fluid or tissue – in data set [2] (setting [6]) was 3820 ng/mL. Also, in data set [2] (oral, 10 mg/kg), the exposure AUC(0-t) amounted to 22.1 ng·h/mL, the time to peak (Tmax) (usually the time at which the peak concentration occurs) came to 4.8 min, the half-life was 113 min and the F is given as 2.6%. In data set [2] (oral, 10 mg/kg, read-out: Cmax), the Cmax came out at 20.3 ng/mL. In data set [3], the “MAO stability (in words)” value is on record as “highly stable”, the half-life at 1 μM is more than 145 min, the intrinsic metabolic clearance (microsomal CLint) at 1 μM was less than 15.9 µL/min/mg and the “Remaining (t = 60 min)” value is reported as 95.1%. For the same compound, the response in data set [4] was half-maximal at 30.5 nM (EC50). Also, in data set [5], the IC50 (as a rule, the concentration that gives 50% inhibition) was found to be 750 nM and the “SERT % Inhibition @ Max Dose” value is on record as 75.35%.
In data set [1], `CCN(C)CCc1c[nH]c2ccccc12` [Compound 2, methylethyltryptamine] registered a half-life at 1 μM of 102 min and a microsomal CLint at 1 μM of 13.6 µL/min/mg. In data set [2] (IV, 10 mg/kg), this compound gave an exposure AUC(0-t) of 545 ng·h/mL, a clearance of 304 mL/min/kg and a half-life of 88.8 min. Besides, the Cmax in data set [2] (setting [6]) was 963 ng/mL. Further, in data set [2] (oral, 10 mg/kg), the AUC(0-t) is 238 ng·h/mL, the Tmax is 15 min, the half-life is 82.2 min and the F is given as 44%. In data set [2] (oral, 10 mg/kg, read-out: Cmax), the peak concentration (Cmax) came to 102 ng/mL. In data set [3], the “MAO stability (in words)” value is “intermediate stability”, the half-life at 1 μM was more than 145 min, the microsomal CLint at 1 μM is less than 15.9 µL/min/mg and the “Remaining (t = 60 min)” value was found to be 84.5%. In data set [4], the Emax (usually the size of the effect at its maximum, as opposed to the concentration needed) was determined as 36.2%; the “selectivity for 5-HT2A over 5-HT2B (in words)” value is given as “highly selective”; the “5-HT2A % Act @ Max Dose” value is on record as 36.2%. In addition, in data set [5], 9130 nM corresponded to half-maximal inhibition (IC50) and the “SERT % Inhibition @ Max Dose” value is given as 62.06%.
`CCCN(CC)CCc1c[nH]c2ccc(F)cc12` [Compound 3, N-ethyl-N-(2-(5-fluoro-1H-indol-3-yl)ethyl) propan-1-amine hydrochloride]: in data set [1], the half-life at 1 μM is 5.5 min and the microsomal CLint at 1 μM was 250 µL/min/mg. Further, in data set [3], the “MAO stability (in words)” value is “highly stable”, the half-life at 1 μM is more than 145 min, the intrinsic clearance (microsomal CLint) at 1 μM was less than 15.9 µL/min/mg and the “Remaining (t = 60 min)” value is reported as 97.7%. In data set [4], the “selectivity for 5-HT2A over 5-HT2B (in words)” value was “little selectivity”, the “5-HT2A % Act @ Max Dose” value was determined as 104.1% and the concentration for a half-maximal effect (EC50) (usually the concentration at which the effect is half-maximal) was determined as 5.54 nM.
In data set [1], `CN(C)CCc1c[nH]c2ccc(F)cc12` [Compound 5, 2-(5-fluoro-1H-indol-3-yl)-N,N-dimethylethan-1-amine hydrochloride] displayed a half-life at 1 μM of 27.3 min and an intrinsic metabolic clearance (microsomal CLint) at 1 μM of 50.8 µL/min/mg. For the same compound, in data set [2] (SC, 1 mg/kg), the AUC(0-t) turned out to be 11 ng·h/mL and the Tmax stood at 4.8 min. The highest concentration (Cmax) in data set [2] (SC, 1 mg/kg, read-out: Cmax) was found to be 41.6 ng/mL. Besides, in data set [2] (SC, 10 mg/kg), the area under the curve AUC(0-t) amounted to 247 ng·h/mL, the Tmax turned out to be 15 min and the half-life is 16.2 min. Further, in data set [2] (SC, 10 mg/kg, read-out: Cmax), the Cmax is 363 ng/mL. Besides, in data set [3], the “MAO stability (in words)” value is “highly metabolized”, the half-life at 1 μM was 8.7 min, the microsomal CLint at 1 μM is 266 µL/min/mg and the “Remaining (t = 60 min)” value turned out to be 0.9%.
In the case of `CN(C)CCc1c[nH]c2ccccc12` [DMT, N,N-dimethyltryptamine, reference compound], in data set [1], the half-life at 1 μM was found to be 69.1 min and the intrinsic metabolic clearance (microsomal CLint) at 1 μM is 20.1 µL/min/mg. In addition, in data set [3], the “MAO stability (in words)” value is “highly metabolized”, the half-life at 1 μM was determined as 17.1 min, the microsomal CLint at 1 μM turned out to be 135 µL/min/mg and the “Remaining (t = 60 min)” value is reported as 8.9%. For the same compound, the “5-HT2A % Act @ Max Dose” value in data set [4] was determined as 93.4%. For the same compound, in data set [5], the midpoint of inhibition, the IC50, lay at 2960 nM and the “SERT % Inhibition @ Max Dose” value is given as 67.92%.
In data set [1], `CN(C)CCc1c[nH]c2cccc(O)c12` [Psilocin, psilocin, reference compound] yielded a half-life at 1 μM of 127 min and an intrinsic metabolic clearance (microsomal CLint) at 1 μM of 10.9 µL/min/mg. In data set [2] (IV, 1 mg/kg), this compound gave an AUC(0-t) of 79.9 ng·h/mL, a clearance of 204 mL/min/kg and a half-life of 66 min. Besides, in data set [2] (IV, 1 mg/kg, read-out: Cmax (C0 back-extrapolated to t = 0)), the Cmax was 195 ng/mL. Moreover, in data set [2] (oral, 1 mg/kg), the AUC(0-t) was determined as 51.1 ng·h/mL, the time to peak (Tmax) came to 10.2 min, the half-life is 118 min and the F amounted to 64%. For the same compound, the maximum concentration (Cmax) in data set [2] (oral, 1 mg/kg, read-out: Cmax) is 85.9 ng/mL. In addition, in data set [3], the “MAO stability (in words)” value was “highly stable”, the half-life at 1 μM is more than 145 min, the microsomal CLint at 1 μM is less than 15.9 µL/min/mg and the “Remaining (t = 60 min)” value is given as 112.1%. Besides, in data set [5], the 50% inhibitory concentration (IC50) was 2040 nM and the “SERT % Inhibition @ Max Dose” value was determined as 88.15%.
